# Reference: US20040151785A1, “Method for treating insulin resistance through hepatic nitric oxide” (DiaMedica Inc., priority 1998, published 2004)
# Read-outs that look alike come from different tables or passages of the source.
# What was measured:
# rats [1] = assay: Arterial blood pressure monitored via arterial-venous loop during RIST experiments; type: in vivo, rat; settings: after atropine, group given intravenous L-NAME 1.0 mg/kg
# Procedure: (§1) Surgical preparation. The left jugular vein was cannulated for glucose infusion. Spontaneous respiration was allowed through a tracheal tube. The blood samples (25 μl) were obtained through a right femoral arterial-venous loop (30). The right femoral artery was cannulated with the arterial side of the loop. The right femoral vein was cannulated with the venous side of the arterial-venous loop. Arterial blood pressure was monitored via the arterial-venous loop by clamping the silicon sleeve on the venous side of the loop. One of the advantages of using this loop is that blood samples can be taken directly from a moving stream of blood with no need to wash or flush sampling catheters. The arterial blood continuously flows through the loop into the venous side. Intravenous infusions, except glucose, were given through the venous side of the loop. After laparotomy, the portal vein was cannulated with a 24G (OPTIVA™, Johnson & Johnson Medical Inc.) intravenous catheter for intraportal drug administration.
# rats [2] = assay: Rapid insulin sensitivity test (RIST), modified euglycemic clamp, in anesthetized rats; type: in vivo, rat; settings: for inhibition at 50 mg/kg: Rattus norvegicus, iv
# Procedure: as §1, with “loop.” for “loop. After laparotomy, the portal vein was cannulated with a 24G (OPTIVA™, Johnson & Johnson Medical Inc.) intravenous catheter for intraportal drug administration.”
# cats = settings: cited from earlier work
structure (smiles),measurement,setting,value
CN1[C@@H]2CC[C@H]1C[C@@H](OC(=O)C(CO)c1ccccc1)C2 (stereo partly drawn) [atropine],blood pressure,rats [1],93.0±8.6 mmHg
N=C(N)NCCC[C@H](N)C(=O)O [L-arginine],inhibition at 50 mg/kg,rats [2]; read-out: inhibition of control RIST,53.8 ± 7.1%
same,inhibition at 50 mg/kg,rats [2]; read-out: inhibition of the control response,48.8 ± 8.2%
COc1ccccc1CNCCCCCCNCCCCCCCCNCCCCCCNCc1ccccc1OC [methoctramine],dose required to produce a full / similar degree of insulin resistance,cats,10^−8 μmol/kg
CN1CCN(CC(=O)N2c3ccccc3C(=O)Nc3cccnc32)CC1 [parenzepine],dose achieving a similar degree of insulin resistance,cats,10^−7 mmol/kg
"[NH-]c1c[n+](N2CCOCC2)no1 [SIN-1, 3-morpholinosyndnonimine]",inhibition of the control RIST remaining,"rats [2]; SIN-1 5.0 mg/kg intraportal after intraportal L-NMMA 0.73 mg/kg, n=5",24.0±11.6%
same,inhibition of the control RIST remaining,"rats [2]; SIN-1 5.0 mg/kg intravenous after intraportal L-NMMA 0.73 mg/kg, n=4",59.0±7.2%
same,inhibition of the control RIST remaining,"rats [2]; SIN-1 10.0 mg/kg intraportal after intraportal L-NMMA 0.73 mg/kg, n=5",0.6±5.8%
same,inhibition of the control RIST remaining,"rats [2]; SIN-1 10.0 mg/kg intraportal after surgical denervation of the hepatic anterior plexus, n=6",3.8±10.4%
